In patent US5637582A, “Peripheral circulation improving agent” (priority 1992, dated 1997):

How the values were obtained:
femoral artery [1] = assay: Maximum increase in femoral arterial blood flow in anesthetized dogs, cumulative i.v. dosing (Experimental Example 3); assay type: in vivo, dog; conditions: maximum during 60 min
Protocol: Adult dogs (one group consisting of 5 dogs) were intravenously given the test compound under anesthesia and artificial respiration successively at intervals of 60 minutes so that the dose can be 10, 30, 100, 300 and 1000 μg/kg body weight, and the blood flow of femoral artery was measured with a time course. […] An increase in the femoral arterial blood flow was calculated by subtracting the blood flow before the administration of the first dose of test compound as the standard value (the base line) from that of maximum during an interval of 60 minutes after each administration.

hind leg edema = assay: Hind leg frostbite model: model of Raynaud's disease (Experimental Example 7); assay type: in vivo, male SD rat
Protocol: (Hind leg frostbite model: Model of Raynaud's disease)
Left hind leg of male SD rat (one group: 3 to 5 rats) was dipped in dry ice-ethanol for 2 seconds, and after 30 minutes, 30 mg/kg of a test compound dissolved in pure water was administered to the rat and then orally administered twice a day for 6 days continuously. At the final day of the experiment, volumes of both hind legs (below ankle joint) of the rat were measured by a water substitution method and an edema ratio was calculated from the following equation. Also, an inhibition ratio of the test compound administered group was obtained by comparing the edema ratio of the group in which the test compound was not administered. [formula]
The present model is disclosed, for example, in Hayashi et al, "Pharmacological Studies on Niceritrol (10), The Effects on Experimental Models of Peripherally Circulatory Insufficiency", Applied Pharmacology, 24 (6): 859-864 (1982), noting particularly the section "2. Effect on an experimental frostbite model" on page 860.

femoral artery [2] = assay: Increase in femoral arterial blood flow in anesthetized dogs, cumulative i.v. dosing (Experimental Example 1); assay type: in vivo, dog; conditions: 60 min after administration
Protocol: Adult dogs (one group consisting of a dog) were intravenously given the test compound under anesthesia and artificial respiration successively at intervals of 60 minutes so that the dose can be 10, 30, 100 and 300 μg/kg body weight, and the blood flow of femoral artery was measured with a time course. […] An increase in the femoral arterial blood flow was calculated by subtracting the blood flow before the administration of the first dose of test compound as the standard value (the base line) from that 60 minutes after each administration.

vertebral artery = assay: Change of vertebral arterial blood flow in anesthetized dogs (Experimental Example 4); conditions: 100 μg/kg i.v.
Protocol: (§1) Each test compound was intravenously administered to adult dogs (one group consisting of 2 or 4 dogs) under anesthesia and artificial respiration at a dose of 100 μg/kg body weight. Femoral arterial blood flow, vertebral arterial blood flow and arterial blood pressure were measured 1, 3, 5, 10, 20 and 30 minutes after the administration. The femoral arterial blood flow and vertebral arterial blood flow were measured with an electromagnetic blood flowmeter (manufactured by Nihon Koden, MFV-2100, trade name) through a flow probe attached to the femoral artery or vertebral artery. The arterial blood pressure was measured with a pressure transducer (manufactured by Millar, MICRO-TIP, Model SPC-350) through a catheter attached to the brachial artery.
(§2) Changes of the femoral arterial blood flow, vertebral arterial blood flow and arterial blood pressure were estimated by comparing the values measured before and after the administration of the test compound.

femoral artery [3] = assay: Change of femoral arterial blood flow in anesthetized dogs (Experimental Example 4); assay type: in vivo, dog; conditions: 100 μg/kg i.v.
Protocol: as §1, §2

arterial blood pressure = test system: arterial blood pressure; parameters: species or system male SD rat; conditions: rat, in vivo
Protocol: (Lower limbs peripheral circulation disorder model due to hind leg cooling: Model of Raynaud's disease) […] TP-200T, trade name) through a catheter attached to the artery. […] After the operation, at the time that the state became stable, the left hind leg was exposed to a perfused solution at 10° C. to decrease the femoral arterial blood flow. […] In the case of Beraprost Na, continuous injection in an amount of […] was carried out after 30 minutes from cooling. […] The present model is disclosed, for example, in Nishio et al, "Effect of Beraprost Sodium on Peripheral Circulatory Disturbances Induced by Various Stimuli", Arzneim.-Forsch./Drug Res., 39 (II), Nr. 10 (1989), pp. 1229-1234. Note particularly the section "2.4. Sphygmometry in rat hind paw", at page 1230.

[4] = test system: right anterior tibial muscle; assay: Abdominal aorta knot-anterior tibial muscle contraction model: model of Buerger's disease (Experimental Example 6); assay type: in vivo, rat; parameters: Change in contraction of the right anterior tibial muscle: unit not given here; conditions: 10 mg/kg/day p.o. 2 weeks
Protocol: (Abdominal aorta knot-anterior tibial muscle contraction model: Model of Buerger's disease)
Rats were previously divided into four groups (Group I: sham operation+5 ml/kg/day of distilled water, Group II: sham operation+10 mg/kg/day of the test compound A, Group III: abdominal aorta knot+5 ml/kg/day of distilled water, and Group IV: abdominal aorta knot+10 mg/kg/day of the test compound A), and operated under anesthesia, 10 mg/kg/day of the test compound A or 5 ml/kg/day of distilled water was orally administered to respective rats, to which an abdominal aorta was knotted or a sham operation was applied, for 2 weeks. Thereafter, a catheter was inserted into a trachea to secure airway under anesthesia. A skin at the right hind leg was cut to expose a muscle and a right anterior tibial muscle was isolated. After the operation, at the time that the state became stable, 10 mg/kg of the test compound A or 1 ml/kg of 0.25% CMC was administered into a duodenum. After 60 minutes from the administration, a tendon of the right anterior tibial muscle was connected with a transducer and the right anterior tibial muscle was directly stimulated electrically with platinum electrodes at 0.5 Hz to obtain a Force-Current curve. Then, electrical stimulation was carried out with a current which submaximally contracted the right anterior tibial muscle and a stimulation frequency of 1.5 Hz for 30 minutes to observe the progress. […]

[5] = 30 mg/kg, orally twice a day for 6 days

In the case of `CC(=O)O[C@@H]1C(=O)N(CCN(C)C)c2ccc(C)cc2S[C@@H]1c1ccc(C)cc1` [Compound A], the “Increase in femoral arterial blood flow” value (femoral artery [1]; 10 μg/kg i.v.) is reported as 5.6 mL/min, the “Increase in femoral arterial blood flow” value (femoral artery [1]; 30 μg/kg i.v.) is reported as 40.4 mL/min and the “Increase in femoral arterial blood flow” value (femoral artery [1]; 100 μg/kg i.v.) is reported as 55.2 mL/min. The “Increase in femoral arterial blood flow” value (femoral artery [1]; 300 μg/kg i.v.) was 61.4 mL/min, the “% Inhibition of edema” value (hind leg edema; [5]) was 27% and the Edema (hind leg edema; [5]) was 32 ± 8%. The edema inhibition activity (hind leg edema; rat hind leg frostbite model, in words) was “showed edema inhibition activity”, the “Increase in femoral arterial blood flow” value (femoral artery [2]; 10 μg/kg i.v.) was 13 mL/min and the “Increase in femoral arterial blood flow” value (femoral artery [2]; 30 μg/kg i.v.) was 30 mL/min. The “Increase in femoral arterial blood flow” value (femoral artery [2]; 100 μg/kg i.v.) was 34 mL/min, the “Increase in femoral arterial blood flow” value (femoral artery [2]; 300 μg/kg i.v.) was 32 mL/min and the “Vertebral Arterial Blood Flow change (side effects)” value (vertebral artery; 1 min) was 0.3 Δ ml/min. The “Vertebral Arterial Blood Flow change (side effects)” value (vertebral artery; 3 min) was 0.0 Δ ml/min, the “Vertebral Arterial Blood Flow change (side effects)” value (vertebral artery; 5 min) was -0.5 Δ ml/min and the “Vertebral Arterial Blood Flow change (side effects)” value (vertebral artery; 10 min) was -1.5 Δ ml/min. The “Vertebral Arterial Blood Flow change (side effects)” value (vertebral artery; 20 min) was -2.8 Δ ml/min, the “Vertebral Arterial Blood Flow change (side effects)” value (vertebral artery; 30 min) was -2.5 Δ ml/min and the “effect on vertebral arterial blood flow” value (vertebral artery; G and H: one minute after, in words) was “substantially no effect”. For the same compound, the “Femoral Arterial Blood Flow change” value (femoral artery [3]; 1 min) was 3.5 Δ ml/min, the “Femoral Arterial Blood Flow change” value (femoral artery [3]; 3 min) was 5.5 Δ ml/min and the “Femoral Arterial Blood Flow change” value (femoral artery [3]; 5 min) was 7.8 Δ ml/min. The “Femoral Arterial Blood Flow change” value (femoral artery [3]; 10 min) was 13.0 Δ ml/min, the “Femoral Arterial Blood Flow change” value (femoral artery [3]; 20 min) was 21.5 Δ ml/min and the “Femoral Arterial Blood Flow change” value (femoral artery [3]; 30 min) was 28.0 Δ ml/min. For the same compound, the “AUC60 of the femoral arterial blood flow” value (femoral artery [3]; 60 minutes after administration) was 1538.4 mL, the “femoral arterial blood flow increasing activity” value (femoral artery [3]; even after 30 minutes, in words) was “excellent femoral arterial blood flow increasing activity” and the “Mean Arterial Pressure change” value (arterial blood pressure) was 0.00 Δ mmHg. The “Time (min) until 20A% contraction” value ([4]; Group II: sham operation) was 16.65 ± 2.99 min, the “Change in contraction of the right anterior tibial muscle” value (“Change in contraction” below) ([4]; Group II: sham operation, 1 min) was 3.29 and the “Change in contraction” value ([4]; Group II: sham operation, 3 min) was 1.71. For the same compound, the “Change in contraction” value ([4]; Group II: sham operation, 5 min) was -1.29, the “Change in contraction” value ([4]; Group II: sham operation, 10 min) was -12.88 and the “Change in contraction” value ([4]; Group II: sham operation, 15 min) was -20.91. The “Change in contraction” value ([4]; Group II: sham operation, 20 min) was -25.66, the “Change in contraction” value ([4]; Group II: sham operation, 30 min) was -30.19 and the “Time (min) until 20A% contraction” value ([4]; Group IV: abdominal aorta knot) was 17.27 ± 3.70 min. The “Change in contraction” value ([4]; Group IV: abdominal aorta knot, 1 min) was 2.44, the “Change in contraction” value ([4]; Group IV: abdominal aorta knot, 3 min) was -1.04 and the “Change in contraction” value ([4]; Group IV: abdominal aorta knot, 5 min) was -4.35. The “Change in contraction” value ([4]; Group IV: abdominal aorta knot, 10 min) was -15.46, the “Change in contraction” value ([4]; Group IV: abdominal aorta knot, 15 min) was -21.82 and the “Change in contraction” value ([4]; Group IV: abdominal aorta knot, 20 min) was -25.98. The “Change in contraction” value ([4]; Group IV: abdominal aorta knot, 30 min) was -30.17.
